This note sets out measurements from ChEMBL document CHEMBL5357013, “Identification of Spiro[chromene-2,4'-piperidine]s as Potent, Selective, and Gq-Biased 5-HT2C Receptor Partial Agonists” (ACS Med Chem Lett, 2024).

Calls of active or inactive are those of the source. The calls are words filed in the database; no cut-off is given here.

Data set [1] addresses T1, 5-hydroxytryptamine receptor 2C (Homo sapiens, UniProt P28335).
T1 sequence (P28335 whole entry): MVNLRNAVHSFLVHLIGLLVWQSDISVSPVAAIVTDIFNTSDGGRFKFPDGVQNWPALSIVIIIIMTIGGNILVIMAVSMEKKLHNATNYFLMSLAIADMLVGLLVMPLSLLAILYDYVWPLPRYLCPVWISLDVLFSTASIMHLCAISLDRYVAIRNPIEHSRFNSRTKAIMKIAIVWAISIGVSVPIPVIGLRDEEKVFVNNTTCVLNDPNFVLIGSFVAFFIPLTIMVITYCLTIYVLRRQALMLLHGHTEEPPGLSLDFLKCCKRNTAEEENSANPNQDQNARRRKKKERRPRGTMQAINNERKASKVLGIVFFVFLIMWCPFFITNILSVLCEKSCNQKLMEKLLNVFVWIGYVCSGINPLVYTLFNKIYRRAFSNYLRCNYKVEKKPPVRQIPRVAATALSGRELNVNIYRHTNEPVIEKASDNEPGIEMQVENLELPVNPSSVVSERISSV
The data set can be described thus: Partial agonist activity at human 5-HT2CR expressed in human Flp-In-T-REx-293 cells assessed as increase in calcium flux incubated for 60 mins followed by incubation for 30 mins in dark by Flou-4 dye based FLIPR assay. It counts as functional, cell-based. A general note: Calcium flux is commonly read through the fluorescence of an indicator in the cells.

Data set [2] has as its target T2, 5-hydroxytryptamine receptor 2C (Homo sapiens) (UniProt P28335).
T2 sequence (whole entry): T1 sequence (P28335 whole entry)
The data set can be described thus: Partial agonist activity at human 5-HT2CR expressed in human Flp-In-T-REx-293 cells assessed as increase in calcium flux by measuring maximal efficacy incubated for 60 mins followed by incubation for 30 mins in dark by Flou-4 dye based FLIPR assay relative to control. The class given is functional, cell-based. The settings on record: time 90.0 min.

Data set [3] deals with T2, 5-hydroxytryptamine receptor 2C (Homo sapiens). Briefly: Partial agonist activity at human 5-HT2CR expressed in human Flp-In-T-REx-293 cells assessed as increase in calcium flux upto 10 uM incubated for 60 mins followed by incubation for 30 mins in dark by Flou-4 dye based FLIPR assay. The class given is functional, cell-based. The settings on record: time 90.0 min.
The target of data set [4] is T3, 5-hydroxytryptamine receptor 2B (Homo sapiens, UniProt P41595). Briefly: Partial agonist activity at human 5-HT2BR expressed in human Flp-In-T-REx-293 cells assessed as increase in calcium flux incubated for 60 mins followed by incubation for 30 mins in dark by Flou-4 dye based FLIPR assay. The class given is functional, cell-based.
T3 sequence (P41595 whole entry): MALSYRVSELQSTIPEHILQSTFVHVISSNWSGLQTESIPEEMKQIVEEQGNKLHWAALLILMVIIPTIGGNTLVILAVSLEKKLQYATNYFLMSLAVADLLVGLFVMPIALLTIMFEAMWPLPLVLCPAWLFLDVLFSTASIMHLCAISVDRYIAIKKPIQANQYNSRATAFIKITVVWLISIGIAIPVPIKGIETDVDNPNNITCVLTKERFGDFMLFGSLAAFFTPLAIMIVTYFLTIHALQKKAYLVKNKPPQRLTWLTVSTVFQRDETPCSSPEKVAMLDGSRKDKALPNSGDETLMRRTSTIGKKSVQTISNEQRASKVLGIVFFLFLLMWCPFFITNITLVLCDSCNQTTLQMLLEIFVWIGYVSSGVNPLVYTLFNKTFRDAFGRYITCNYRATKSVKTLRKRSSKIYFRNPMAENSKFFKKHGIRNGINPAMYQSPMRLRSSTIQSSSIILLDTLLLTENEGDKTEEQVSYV
The target of data set [5] is 5-hydroxytryptamine receptor 2A (Homo sapiens) (UniProt P28223). Briefly: Partial agonist activity at human 5-HT2AR expressed in human Flp-In-T-REx-293 cells assessed as increase in calcium flux upto 10 uM incubated for 60 mins followed by incubation for 30 mins in dark by Flou-4 dye based FLIPR assay. The class given is functional, cell-based. Conditions: time 90.0 min.
Chain of 5-hydroxytryptamine receptor 2A (Homo sapiens) (P28223 whole entry): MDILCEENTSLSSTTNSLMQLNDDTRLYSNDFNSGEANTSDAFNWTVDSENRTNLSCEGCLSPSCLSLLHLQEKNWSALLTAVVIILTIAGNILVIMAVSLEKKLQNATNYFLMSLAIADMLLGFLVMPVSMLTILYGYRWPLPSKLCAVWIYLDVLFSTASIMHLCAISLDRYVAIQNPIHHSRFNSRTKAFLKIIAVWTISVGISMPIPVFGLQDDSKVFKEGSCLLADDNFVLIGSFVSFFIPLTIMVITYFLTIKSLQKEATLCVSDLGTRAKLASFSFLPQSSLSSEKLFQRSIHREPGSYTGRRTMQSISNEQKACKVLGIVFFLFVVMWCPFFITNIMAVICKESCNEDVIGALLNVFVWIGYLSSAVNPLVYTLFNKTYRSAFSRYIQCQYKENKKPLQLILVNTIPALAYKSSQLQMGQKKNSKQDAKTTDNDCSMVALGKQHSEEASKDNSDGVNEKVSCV

In data set [6] the target is T1, 5-hydroxytryptamine receptor 2C. Briefly: Agonist activity at human 5-HT2CR expressed in human Flp-In-T-REx-293 cells assessed as increase in calcium flux incubated for 60 mins followed by incubation for 30 mins in dark by Flou-4 dye based FLIPR assay. It counts as functional, cell-based.
The target of data set [7] is T3, 5-hydroxytryptamine receptor 2B. Briefly: Partial agonist activity at human 5-HT2BR expressed in human Flp-In-T-REx-293 cells assessed as increase in calcium flux by measuring maximal efficacy incubated for 60 mins followed by incubation for 30 mins in dark by Flou-4 dye based FLIPR assay relative to control. It counts as functional, cell-based. Conditions: time 90.0 min.

Data set [8] deals with T2, 5-hydroxytryptamine receptor 2C (Homo sapiens). Briefly: Agonist activity at human 5-HT2CR expressed in human Flp-In-T-REx-293 cells assessed as increase in calcium flux by measuring maximal efficacy incubated for 60 mins followed by incubation for 30 mins in dark by Flou-4 dye based FLIPR assay. It counts as functional, cell-based. Conditions: filed as agonist, time 90.0 min.

For data set [9] the target is unchanged. Briefly: Partial agonist activity at Rluc-tagged 5-HT2CR (unknown origin) transfected in HEK293T cells assessed as beta-arrestin-2 recruitment incubated for 10 mins by coelenterazine 400a based BRET assay. It counts as functional, cell-based.
The target in data set [10] is T4, hERG (KCNH2) (Homo sapiens, UniProt Q12809). Briefly: Inhibition of hERG at 10 uM relative to control. It counts as toxicity. On the technique in general: The hERG channel carries a current that helps repolarise heart muscle cells.
T4 sequence (Q12809 whole entry): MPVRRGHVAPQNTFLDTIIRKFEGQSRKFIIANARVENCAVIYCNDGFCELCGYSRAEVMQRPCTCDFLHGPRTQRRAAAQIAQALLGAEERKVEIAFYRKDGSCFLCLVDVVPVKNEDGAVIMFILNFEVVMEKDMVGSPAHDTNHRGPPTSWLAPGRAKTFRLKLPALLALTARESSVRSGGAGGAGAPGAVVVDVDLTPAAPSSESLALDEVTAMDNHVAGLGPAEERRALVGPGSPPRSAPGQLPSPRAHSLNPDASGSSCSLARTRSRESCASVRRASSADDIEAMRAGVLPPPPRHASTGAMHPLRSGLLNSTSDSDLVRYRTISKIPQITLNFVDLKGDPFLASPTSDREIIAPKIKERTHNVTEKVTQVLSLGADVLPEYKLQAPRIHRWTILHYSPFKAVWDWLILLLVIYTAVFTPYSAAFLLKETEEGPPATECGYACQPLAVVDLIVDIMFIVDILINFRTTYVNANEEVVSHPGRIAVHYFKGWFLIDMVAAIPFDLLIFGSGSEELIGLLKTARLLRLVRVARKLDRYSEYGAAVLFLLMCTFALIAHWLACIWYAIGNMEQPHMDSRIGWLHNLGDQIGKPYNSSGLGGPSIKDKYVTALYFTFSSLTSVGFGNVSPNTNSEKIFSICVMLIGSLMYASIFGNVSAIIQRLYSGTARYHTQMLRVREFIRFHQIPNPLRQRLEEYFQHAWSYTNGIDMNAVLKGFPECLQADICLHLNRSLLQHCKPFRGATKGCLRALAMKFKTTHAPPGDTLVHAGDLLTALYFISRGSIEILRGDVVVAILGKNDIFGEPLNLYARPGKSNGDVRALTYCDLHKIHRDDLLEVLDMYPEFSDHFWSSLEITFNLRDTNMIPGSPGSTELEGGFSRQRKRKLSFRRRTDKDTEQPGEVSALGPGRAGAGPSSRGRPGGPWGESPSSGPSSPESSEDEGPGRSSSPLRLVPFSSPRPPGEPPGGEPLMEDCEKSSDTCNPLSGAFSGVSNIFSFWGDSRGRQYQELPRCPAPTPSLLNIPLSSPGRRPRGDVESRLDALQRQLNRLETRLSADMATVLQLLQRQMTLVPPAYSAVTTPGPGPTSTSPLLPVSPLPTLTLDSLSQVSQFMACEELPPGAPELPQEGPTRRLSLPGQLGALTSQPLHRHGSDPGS
The target in data set [11] is T3, 5-hydroxytryptamine receptor 2B. The data set can be described thus: Partial agonist activity at human 5-HT2BR expressed in human Flp-In-T-REx-293 cells assessed as increase in calcium flux upto 10 uM incubated for 60 mins followed by incubation for 30 mins in dark by Flou-4 dye based FLIPR assay. The class given is functional, cell-based. Conditions: time 90.0 min.

For data set [12], the target named is T4, hERG (KCNH2). Briefly: Inhibition of hERG expressed in CHO cells at 10 uM by automated patch clamp method relative to control. The class given is toxicity, cell-based. Conditions: CHO cells that express hERG.

Usually Emax stands for the greatest response seen or fitted, relative to the assay's reference. As for `COc1ccc2c(c1)OC1(C=C2)CCNCC1`, the EC50 in data set [1] (read-out: EC50) was determined as 3740 nM. Further, the Emax in data set [2] (filed as partial agonist) came out at 50.4%.

As to `COc1cccc2c1C=CC1(CCNCC1)O2`, in data set [3], the outcome was inactive.

`C[C@H]1CC2(C=Cc3ccc(Cl)cc3O2)CCN1` (stereo in doubt; 31a): in data set [3], the result was inactive.

With `Fc1cccc2c1OC1(C=C2)CCNCC1`, the EC50 in [1] (read-out: EC50) was 929 nM. In data set [2] (filed as partial agonist), the Emax is 64.4%.

`Clc1cccc2c1C=CC1(CCNCC1)O2`: the results for the EC50 in data set [4] and in [6] were 68.4 nM and 31 nM, respectively. In addition, the outcome in data set [5] was inactive. For the same molecule, the Emax in data set [7] came out at 34.1%; in data set [8] it was 81.9%.

Consider `Cc1ccc2c(c1)C=CC1(CCNCC1)O2`, for which, in data set [3], the result was inactive.

For the molecule `CC1CNCCC12C=Cc1ccc(Cl)cc1O2` (stereo in doubt; 29b) [listing 1 of 2 here], the EC50 in data set [1] (read-out: EC50) is 2650 nM.

As to `CC1CNCCC12C=Cc1ccc(Cl)cc1O2` (stereo in doubt; 29a) [listing 1 of 2 here], in data set [2] (filed as partial agonist), the Emax was found to be 80%.

Consider `Fc1ccc2c(c1)C=CC1(CCNCC1)O2`, for which, in data set [1] (read-out: EC50), the EC50 stood at 3060 nM. Also, the Emax in [2] (filed as partial agonist) came out at 49.5%.

As for `C1=CC2(CCNCC2)Oc2ccccc21`, the EC50 turned out to be 147 nM in data set [1] (read-out: EC50) and 897 nM in [4]. Moreover, the result in [5] and in [9] was inactive. Besides, the results for the Emax in [2] (filed as partial agonist) and in data set [7] were 85.9% and 19.4%, respectively.

Consider `CC1CNCCC12C=Cc1ccc(Cl)cc1O2` (stereo in doubt; 29b) [listing 2 of 2 here], for which the Emax in data set [2] (filed as partial agonist) was determined as 73.7%.

In the case of `Cc1cccc2c1OC1(C=C2)CCNCC1`, the EC50 in data set [1] (read-out: EC50) was 2060 nM. The Emax in [2] stood at 22.4%.

As for `Cc1cccc2c1C=CC1(CCNCC1)O2`, the EC50 in data set [1] (read-out: EC50) was found to be 170 nM. Moreover, the Emax in [2] (filed as partial agonist) was 55.2%.

Turning to `Clc1ccc2c(c1Cl)OC1(C=C2)CCNCC1`, the result in data set [3] was inactive.

Regarding `OC1CC2(CCNCC2)Oc2ccccc21` (stereo not given), in data set [3], the result was inactive.

On to `C[C@H]1CC2(C=Cc3ccc(Cl)cc3O2)CCN1` (stereo in doubt; 31b), for which the result in [3] was inactive.

As a reminder, the inhibition is the change of the read-out against control, counted positive when it falls. A higher inhibition goes with a strong effect. `COc1ccc2c3c1-c1ccccc1CC3NCC2` (stereo not given): the inhibition at 10 µM in [10] is 92.7%. In addition, the EC50 in data set [1] (read-out: pEC50 (converted)) was 100 nM. Moreover, the result in data set [5] and in data set [11] was inactive.

Take `c1ccc2c(c1)CCC1(CCNCC1)O2`: the result in data set [3] was inactive.

On to `Clc1ccc2c(c1)OC1(C=C2)CCCNCC1` (stereo not given), for which the EC50 in [1] (read-out: EC50) is 3110 nM. Further, the Emax in data set [2] turned out to be 26.2%.

In the case of `Clc1cccc2c1OC1(C=C2)CCNCC1`, the EC50 in data set [1] (read-out: EC50) turned out to be 150 nM; in data set [4] it was 470 nM. Moreover, in data set [5], the outcome was inactive. The Emax was determined as 75.7% in data set [2] (filed as partial agonist) and 30.9% in data set [7].

For `Clc1ccc2c(c1)OC1(C=C2)CC2CCC(C1)N2` (stereo not given), the outcome in data set [3] was inactive.

For `CC1CNCCC12C=Cc1ccc(Cl)cc1O2` (stereo in doubt; 29a) [listing 2 of 2 here], in [1] (read-out: EC50), the EC50 stood at 476 nM.

Take `Clc1cc(Cl)c2c(c1)OC1(C=C2)CCNCC1`: the outcome in data set [3] was inactive.

With `Clc1ccc2c(c1)OC1(C=C2)CCNC1` (stereo not given), the EC50 in [1] (read-out: EC50) was 330 nM. The Emax in data set [2] (filed as partial agonist) worked out at 44.7%.

Regarding `Fc1ccc2c(c1)OC1(C=C2)CCNCC1`, in [6], the EC50 turned out to be 158 nM. Besides, in [8], the Emax worked out at 91.4%.

Turning to `Clc1ccc2c(c1)C=CC1(CCNCC1)O2`, the EC50 in [1] (read-out: EC50) was 215 nM; in [1] (read-out: pEC50 (converted)), 2000 nM. The Emax in data set [2] turned out to be 36.3%.

`Clc1ccc2c(c1)OC1(C=C2)CCNCC1`: in data set [12], the inhibition at 10 µM was determined as 43.9%. Further, the EC50 in data set [1] (read-out: EC50) came to 121 nM. Moreover, the outcome in data set [5] and in data set [9] was inactive. Also, the Emax in data set [2] (filed as partial agonist) came out at 71.1%.

As to `C[C@@H]1CC2(C=Cc3ccc(Cl)cc3O2)CCN1` (stereo not given in full), the EC50 in data set [1] (read-out: EC50) was 950 nM. Also, in data set [3], the outcome was inactive. Moreover, in [2] (filed as partial agonist), the Emax came out at 82.5%.

As to `COc1ccc2c(c1)C=CC1(CCNCC1)O2`, the outcome in [3] was inactive.

As for `O=C1CC2(CCNCC2)Oc2ccccc21`, the result in [3] was inactive.

Take `Clc1ccc2c(c1)OC1(C=C2)CNC1`: the EC50 in data set [1] (read-out: EC50) came to 2490 nM. In addition, in data set [2] (filed as partial agonist), the Emax stood at 58.5%.

On to `Clc1ccc2c(c1)OC1(C=C2)CCCNC1` (stereo not given), for which the outcome in data set [3] was inactive.

Regarding `Cc1ccc2c(c1)OC1(C=C2)CCNCC1`, in data set [3], the result was inactive.

In the case of `Brc1ccc2c(c1)OC1(C=C2)CCNCC1`, the EC50 in [1] (read-out: EC50) amounted to 488 nM. Further, the Emax in data set [2] (filed as partial agonist) came out at 72.6%.

For `NC1CCC2(C=Cc3ccc(Cl)cc3O2)CC1` (stereo not given), the EC50 in data set [1] (read-out: EC50) was 3380 nM. The Emax in data set [2] (filed as partial agonist) turned out to be 69%.
